Reference: ChEMBL document CHEMBL5126592, “Design, synthesis and activity against drug-resistant bacteria evaluation of C-20, C-23 modified 5-O-mycaminosyltylonolide derivatives” (Eur J Med Chem, 2022)
Values after ≈ are worked out from the molar mass of the structure shown. Active and inactive are the calls of the source. The calls are words filed in the database; no cut-off is given here.

Columns and labels:
[1] = Genotoxicity in Salmonella typhimurium TA100 assessed as number of revertants at 1.6x10^-6 mg/plate incubated for 72 hrs in presence of liver S9 fraction by Ames test (reference value: 204.33 +/- 8.14); assay type: toxicity, subcellular; details: salmonella enterica subsp. enterica serovar typhimurium, s9, 72 h
Staphylococcus aureus [2] = experiment: Antibacterial activity against Staphylococcus aureus ATCC 29213 at pH 8.2 incubated for 16 to 20 hrs by broth microdilution method; assay type: functional; details: time 16-20 hrs
[3] = Genotoxicity in Salmonella typhimurium TA1537 assessed as number of revertants at 1.6x10^-6 mg/plate incubated for 72 hrs in absence of liver S9 fraction by Ames test (reference value: 22.67 +/- 2.52); assay type: toxicity; details: salmonella enterica subsp. enterica serovar typhimurium, s9, 72 h
[4] = Genotoxicity in Salmonella typhimurium TA102 assessed as number of revertants at 8x10^-6 mg/plate incubated for 72 hrs in absence of liver S9 fraction by Ames test (reference value: 386.67 +/- 23.44); assay type: toxicity; details: salmonella enterica subsp. enterica serovar typhimurium, s9, 72 h
Staphylococcus aureus [5] = experiment: Antibacterial activity against Staphylococcus aureus ATCC 29213 at pH 7.4 incubated for 16 to 20 hrs by broth microdilution method; assay type: functional; details: time 16-20 hrs
[6] = test system: Staphylococcus chromogenes; experiment: Antibacterial activity against Staphylococcus chromogenes incubated for 16 to 20 hrs by broth microdilution method; assay type: functional; details: time 16-20 hrs
Staphylococcus aureus [7] = experiment: Antibacterial activity against Staphylococcus aureus ATCC 29213 at pH 6.8 incubated for 16 to 20 hrs by broth microdilution method; assay type: functional; details: time 16-20 hrs
[8] = Toxicity in Kunming mouse infected with Staphylococcus aureus ATCC 25923 assessed as intact lung tissue structure at 20 to 40 mg/kg, iv measured after 1 hr by hematoxylin and eosin staining based microscopic analysis; assay type: organism-based; details: in vivo, dose 20-40 mg/kg
[9] = Toxicity in Kunming mouse infected with Staphylococcus aureus ATCC 25923 assessed as normal alveolar wall thickness at 20 to 40 mg/kg, iv measured after 1 hr by hematoxylin and eosin staining based microscopic analysis; assay type: organism-based; details: in vivo, dose 20-40 mg/kg
[10] = Genotoxicity in Salmonella typhimurium TA100 assessed as number of revertants at 1x10^-3 mg/plate incubated for 72 hrs in absence of liver S9 fraction by Ames test (reference value: 221.67 +/- 15.57); assay type: toxicity; details: salmonella enterica subsp. enterica serovar typhimurium, s9, 72 h
Staphylococcus aureus [11] = experiment: Antibacterial activity against Staphylococcus aureus ATCC 25923 infected in kunming mouse assessed as reduction in lung congestion at 20 to 40 mg/kg, iv measured after 1 hr by hematoxylin and eosin staining based microscopic analysis; assay type: functional, organism-based; details: dose 20-40 mg/kg
Escherichia coli = experiment: Antibacterial activity against Escherichia coli ATCC 25922 at pH 8.4 incubated for 16 to 20 hrs by broth microdilution method; assay type: functional; details: time 16-20 hrs
[12] = Genotoxicity in Salmonella typhimurium TA1537 assessed as number of revertants at 8x10^-6 mg/plate incubated for 72 hrs in presence of liver S9 fraction by Ames test (reference value: 20 +/- 5); assay type: toxicity, subcellular; details: salmonella enterica subsp. enterica serovar typhimurium, s9, 72 h

Structure (SMILES): CC[C@H]1OC(=O)C[C@@H](O)[C@H](C)[C@@H](O[C@@H]2O[C@H](C)[C@@H](O)[C@H](N(C)C)[C@H]2O)[C@@H](CCN(C)Cc2cn(-c3cnc4ccccc4c3)nn2)C[C@@H](C)C(=O)/C=C/C(C)=C/[C@@H]1CN1CCCCCC1
- Activity [1]: 162.67
- MIC (Staphylococcus aureus [2]): ≤ 0.0625 µg/mL
- Activity [3]: 14.33
- Activity [4]: 425.33
- MIC (Staphylococcus aureus [5]): 0.25 µg/mL (≈ 0.277 µM)
- MIC [6]: 0.25 µg/mL (≈ 0.277 µM)
- MIC (Staphylococcus aureus [7]): 4 µg/mL (≈ 4.43 µM)
- Activity [8]: Non-Toxic
- Activity [9]: Non-Toxic
- Activity [10]: 231
- Activity (Staphylococcus aureus [11]): Active
- MIC (Escherichia coli): 0.25 µg/mL (≈ 0.277 µM)
- Activity [12]: 17.67
